In ChEMBL document CHEMBL5360657, “Discovery of the TLR7/8 Antagonist MHV370 for Treatment of Systemic Autoimmune Diseases” (ACS Med Chem Lett, 2023):
≈ marks a conversion by molar mass, not a printed value.

Columns and labels:
Toll-like receptor 8 = molecular target: T1, Toll-like receptor 8 (Homo sapiens, UniProt Q9NR97); assay: Antagonist activity at TLR8 in human PBMC cells […] assessed as reduction in IL-6 level measured after 20 hrs by AlphaLISA assay; format: cell-based
T1 sequence (Q9NR97 whole entry): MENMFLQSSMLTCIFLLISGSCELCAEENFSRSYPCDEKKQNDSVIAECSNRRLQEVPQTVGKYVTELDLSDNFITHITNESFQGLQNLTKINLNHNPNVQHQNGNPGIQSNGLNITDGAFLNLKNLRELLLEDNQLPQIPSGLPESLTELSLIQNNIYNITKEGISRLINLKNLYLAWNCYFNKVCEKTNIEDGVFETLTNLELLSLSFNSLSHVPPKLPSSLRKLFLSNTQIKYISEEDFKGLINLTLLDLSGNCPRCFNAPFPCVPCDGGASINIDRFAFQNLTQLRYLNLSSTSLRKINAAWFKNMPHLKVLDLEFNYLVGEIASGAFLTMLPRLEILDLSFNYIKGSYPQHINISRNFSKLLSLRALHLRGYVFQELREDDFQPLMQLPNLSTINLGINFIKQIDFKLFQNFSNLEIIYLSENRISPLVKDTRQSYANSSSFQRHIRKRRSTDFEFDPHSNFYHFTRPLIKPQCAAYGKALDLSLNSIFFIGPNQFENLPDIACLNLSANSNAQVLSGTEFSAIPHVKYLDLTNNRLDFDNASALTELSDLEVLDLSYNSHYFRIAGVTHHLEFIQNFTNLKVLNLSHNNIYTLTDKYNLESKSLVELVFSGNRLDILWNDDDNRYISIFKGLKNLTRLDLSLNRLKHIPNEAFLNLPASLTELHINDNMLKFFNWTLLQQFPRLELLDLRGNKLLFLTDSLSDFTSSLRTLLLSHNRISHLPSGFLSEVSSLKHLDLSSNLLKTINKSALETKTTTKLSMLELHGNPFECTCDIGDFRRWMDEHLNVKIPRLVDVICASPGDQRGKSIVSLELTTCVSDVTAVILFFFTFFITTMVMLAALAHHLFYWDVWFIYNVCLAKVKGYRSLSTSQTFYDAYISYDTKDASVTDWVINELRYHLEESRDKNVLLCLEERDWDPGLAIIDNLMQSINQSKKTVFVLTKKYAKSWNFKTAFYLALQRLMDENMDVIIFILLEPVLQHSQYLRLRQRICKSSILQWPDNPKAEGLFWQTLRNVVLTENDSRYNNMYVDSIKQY

Cytochrome P450 3A4 [1] = molecular target: T2, Cytochrome P450 3A4 (Homo sapiens, UniProt P08684); assay: Inhibition of CYP3A4 (unknown origin); format: ADME
T2 sequence (P08684 whole entry): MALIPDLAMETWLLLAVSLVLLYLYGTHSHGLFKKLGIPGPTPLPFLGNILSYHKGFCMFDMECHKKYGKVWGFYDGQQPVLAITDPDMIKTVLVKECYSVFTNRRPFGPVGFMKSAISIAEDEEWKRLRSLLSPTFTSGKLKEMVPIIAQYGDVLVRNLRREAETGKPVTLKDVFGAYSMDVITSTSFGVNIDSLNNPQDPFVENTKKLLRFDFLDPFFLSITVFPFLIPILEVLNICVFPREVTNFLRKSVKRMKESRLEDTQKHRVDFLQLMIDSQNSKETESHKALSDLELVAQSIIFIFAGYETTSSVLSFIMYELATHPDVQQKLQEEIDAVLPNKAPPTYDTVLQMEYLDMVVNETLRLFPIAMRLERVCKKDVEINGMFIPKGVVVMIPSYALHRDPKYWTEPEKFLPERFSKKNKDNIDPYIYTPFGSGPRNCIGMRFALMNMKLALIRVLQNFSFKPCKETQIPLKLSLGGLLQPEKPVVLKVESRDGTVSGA

[2] = Metabolic stability in rat liver microsomes assessed as intrinsic clearance; format: ADME, Microsome; conditions: read-out: CLH
[3] = Permeability of the compound by PAMPA; format: ADME
[4] = molecular target: Voltage-gated inwardly rectifying potassium channel KCNH2 (Homo sapiens, UniProt Q12809); assay: Displacement of [3H]-dofetilite from human ERG (unknown origin); format: toxicity
Chain of Voltage-gated inwardly rectifying potassium channel KCNH2 (Q12809 whole entry): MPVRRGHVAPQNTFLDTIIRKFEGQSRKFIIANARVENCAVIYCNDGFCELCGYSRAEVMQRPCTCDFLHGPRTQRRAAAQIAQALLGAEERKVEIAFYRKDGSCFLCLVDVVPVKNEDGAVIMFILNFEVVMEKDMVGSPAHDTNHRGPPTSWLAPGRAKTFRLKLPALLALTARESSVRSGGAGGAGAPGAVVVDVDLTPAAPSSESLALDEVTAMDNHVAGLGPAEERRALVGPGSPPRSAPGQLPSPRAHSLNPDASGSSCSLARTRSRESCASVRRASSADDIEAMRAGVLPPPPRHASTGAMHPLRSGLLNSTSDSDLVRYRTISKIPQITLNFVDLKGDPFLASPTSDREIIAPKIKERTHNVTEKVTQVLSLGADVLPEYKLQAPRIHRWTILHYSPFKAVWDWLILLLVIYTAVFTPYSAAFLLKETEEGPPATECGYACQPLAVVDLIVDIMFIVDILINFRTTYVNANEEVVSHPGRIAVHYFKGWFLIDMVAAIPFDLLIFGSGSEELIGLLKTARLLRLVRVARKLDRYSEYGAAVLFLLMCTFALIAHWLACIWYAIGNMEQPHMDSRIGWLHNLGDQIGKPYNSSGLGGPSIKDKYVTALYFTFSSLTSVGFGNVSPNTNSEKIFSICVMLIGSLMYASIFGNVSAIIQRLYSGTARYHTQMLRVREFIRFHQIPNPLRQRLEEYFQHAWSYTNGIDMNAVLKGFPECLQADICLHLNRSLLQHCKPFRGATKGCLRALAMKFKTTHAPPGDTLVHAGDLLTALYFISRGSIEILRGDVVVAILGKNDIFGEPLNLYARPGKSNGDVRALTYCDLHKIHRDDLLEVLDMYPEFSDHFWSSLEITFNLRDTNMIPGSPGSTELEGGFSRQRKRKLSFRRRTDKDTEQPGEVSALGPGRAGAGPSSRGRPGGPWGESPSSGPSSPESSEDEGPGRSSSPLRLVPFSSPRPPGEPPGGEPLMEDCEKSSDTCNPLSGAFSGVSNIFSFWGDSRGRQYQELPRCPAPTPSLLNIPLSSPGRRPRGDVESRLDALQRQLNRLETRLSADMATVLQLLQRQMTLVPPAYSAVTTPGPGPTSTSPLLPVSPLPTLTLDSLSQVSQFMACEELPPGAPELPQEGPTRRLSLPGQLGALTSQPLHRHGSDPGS

[5] = Solubility of the compound; format: physicochemical
Toll-like receptor 7 = molecular target: T3, Toll-like receptor 7 (Homo sapiens, UniProt Q9NYK1); assay: Antagonist activity at TLR7 in human PBMC cells assessed as reduction in IFN alpha measured after 20 hrs by AlphaLISA assay; format: cell-based
T3 sequence (Q9NYK1 whole entry): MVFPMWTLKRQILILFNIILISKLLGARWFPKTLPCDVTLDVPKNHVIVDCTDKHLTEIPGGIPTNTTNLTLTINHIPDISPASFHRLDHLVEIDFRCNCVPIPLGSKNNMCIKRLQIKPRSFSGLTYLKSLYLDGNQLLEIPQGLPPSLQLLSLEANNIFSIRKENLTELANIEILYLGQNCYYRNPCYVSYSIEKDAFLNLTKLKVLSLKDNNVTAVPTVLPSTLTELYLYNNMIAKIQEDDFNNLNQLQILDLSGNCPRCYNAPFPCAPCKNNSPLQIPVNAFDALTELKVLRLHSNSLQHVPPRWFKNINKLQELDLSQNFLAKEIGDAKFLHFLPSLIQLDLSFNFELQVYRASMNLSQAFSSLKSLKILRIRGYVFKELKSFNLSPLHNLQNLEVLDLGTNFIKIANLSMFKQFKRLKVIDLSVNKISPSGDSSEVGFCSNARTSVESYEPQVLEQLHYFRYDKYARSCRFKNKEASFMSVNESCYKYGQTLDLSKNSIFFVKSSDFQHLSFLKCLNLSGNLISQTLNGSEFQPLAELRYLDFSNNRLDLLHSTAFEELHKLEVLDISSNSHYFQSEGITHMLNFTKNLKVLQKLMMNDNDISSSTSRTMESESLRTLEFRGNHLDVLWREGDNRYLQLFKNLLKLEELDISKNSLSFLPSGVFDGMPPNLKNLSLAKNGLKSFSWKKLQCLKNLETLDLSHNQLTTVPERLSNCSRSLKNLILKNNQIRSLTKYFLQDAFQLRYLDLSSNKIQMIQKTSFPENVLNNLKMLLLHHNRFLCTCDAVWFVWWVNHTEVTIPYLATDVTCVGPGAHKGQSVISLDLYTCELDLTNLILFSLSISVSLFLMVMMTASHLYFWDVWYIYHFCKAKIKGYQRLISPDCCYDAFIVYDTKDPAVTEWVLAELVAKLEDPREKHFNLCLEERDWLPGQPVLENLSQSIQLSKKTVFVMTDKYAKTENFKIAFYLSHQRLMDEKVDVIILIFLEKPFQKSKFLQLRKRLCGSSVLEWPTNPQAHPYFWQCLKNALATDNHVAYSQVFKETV

Toll-like receptor 9 = molecular target: T4, Toll-like receptor 9 (Homo sapiens, UniProt Q9NR96); assay: Antagonist activity at TLR9 in human PBMC cells assessed as reduction in IFN alpha measured after 20 hrs by AlphaLISA assay; format: cell-based
T4 sequence (Q9NR96 whole entry): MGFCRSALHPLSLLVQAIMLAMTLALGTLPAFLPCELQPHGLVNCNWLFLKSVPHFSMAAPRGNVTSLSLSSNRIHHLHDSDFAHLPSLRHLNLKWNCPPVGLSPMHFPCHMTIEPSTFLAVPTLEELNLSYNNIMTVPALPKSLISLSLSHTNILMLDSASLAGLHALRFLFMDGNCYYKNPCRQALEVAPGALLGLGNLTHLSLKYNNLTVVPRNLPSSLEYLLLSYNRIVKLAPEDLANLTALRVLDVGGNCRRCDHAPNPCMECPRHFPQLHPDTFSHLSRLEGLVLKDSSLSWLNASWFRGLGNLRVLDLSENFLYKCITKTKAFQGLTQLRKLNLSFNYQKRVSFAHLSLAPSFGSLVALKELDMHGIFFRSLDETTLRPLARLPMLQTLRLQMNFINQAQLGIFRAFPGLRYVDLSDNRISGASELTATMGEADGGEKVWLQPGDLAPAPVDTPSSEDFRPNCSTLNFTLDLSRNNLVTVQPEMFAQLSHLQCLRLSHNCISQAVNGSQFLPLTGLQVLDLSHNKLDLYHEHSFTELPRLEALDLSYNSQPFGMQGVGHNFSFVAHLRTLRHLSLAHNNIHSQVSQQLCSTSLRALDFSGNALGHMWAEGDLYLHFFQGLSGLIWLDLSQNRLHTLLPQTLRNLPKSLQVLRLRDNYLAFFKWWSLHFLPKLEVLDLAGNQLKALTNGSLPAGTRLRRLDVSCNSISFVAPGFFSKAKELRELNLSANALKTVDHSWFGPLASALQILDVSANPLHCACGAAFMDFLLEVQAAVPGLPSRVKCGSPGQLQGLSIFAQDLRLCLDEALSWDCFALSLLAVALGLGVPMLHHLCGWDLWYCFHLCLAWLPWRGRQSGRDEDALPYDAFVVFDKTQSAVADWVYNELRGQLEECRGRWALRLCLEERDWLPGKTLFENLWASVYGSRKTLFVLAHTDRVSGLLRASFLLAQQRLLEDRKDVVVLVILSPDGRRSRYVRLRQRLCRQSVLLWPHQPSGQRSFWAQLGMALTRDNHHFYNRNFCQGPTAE

Cytochrome P450 3A4 [6] = molecular target: T2, Cytochrome P450 3A4; assay: Time dependent inhibition of CYP3A4 (unknown origin) assessed as Kobs; format: ADME; also: test concentration or dose not given here
[7] = Metabolic stability in human liver microsomes assessed as intrinsic clearance; format: ADME, Microsome; conditions: read-out: CLH
[8] = Metabolic stability in mouse liver microsomes assessed as intrinsic clearance; format: ADME, Microsome; conditions: read-out: CLH

Structure (SMILES) | IC50 (Toll-like receptor 8) | IC50 (Cytochrome P450 3A4 [1]) | microsomal CLint [2] | log(permeability) [3] | solubility [5] | IC50 (Toll-like receptor 7) | IC50 (Toll-like receptor 9) | Kobs (Cytochrome P450 3A4 [6]) | microsomal CLint [7] | microsomal CLint [8] | IC50 [4]
Cc1cc(N2CCc3c(c(C)nn3CC34CCC(NS(C)(=O)=O)(CC3)CC4)C2)c2cnn(C)c2n1 | > 10 µM | > 50 µM | 78 µL/min/mg | -4.8 | 120 µM (≈ 59.7 µg/mL) | 0.008 µM | > 10 µM | 0.021 min⁻¹ | 107 µL/min/mg |  | > 30 µM
Cc1cc(N2CCc3c(c(C)nn3CC34CCC(NC5COC5)(CC3)CC4)C2)c2cnn(C)c2n1 | 0.18 µM | 33 µM | 67 µL/min/mg | -4.5 | > 175 µM | 0.03 µM | 0.97 µM | 0.009 min⁻¹ | 57 µL/min/mg | 60 µL/min/mg | > 30 µM
Cc1cc(N2CCc3c(c(C)nn3CC34CCC(N5CCCC5)(CC3)CC4)C2)c2cnn(C)c2n1 | 0.085 µM | 18 µM | 55 µL/min/mg | -4.7 | > 175 µM |  | 0.35 µM | 0.022 min⁻¹ | 62 µL/min/mg | 24 µL/min/mg | 11 µM
CC(=O)NC12CCC(Cn3nc(C)c4c3CCN(c3cc(C)nc5c3cnn5C)C4)(CC1)CC2 | > 10 µM | 24 µM | 45 µL/min/mg | -4.6 | > 175 µM |  | 5.2 µM | 0.022 min⁻¹ | 63 µL/min/mg |  | > 30 µM
Cc1cc(N2CCc3c(c(C)nn3CC34CCC(NCC(F)F)(CC3)CC4)C2)c2cnn(C)c2n1 | 0.14 µM | 8.6 µM | 656 µL/min/mg | -3.7 | > 175 µM |  |  | 0.011 min⁻¹ | 423 µL/min/mg |  | > 30 µM

Compounds with a lower IC50 (Toll-like receptor 8), results first:

IC50 (Toll-like receptor 8) | IC50 (Cytochrome P450 3A4 [1]) | microsomal CLint [2] | log(permeability) [3] | solubility [5] | IC50 (Toll-like receptor 7) | IC50 (Toll-like receptor 9) | Kobs (Cytochrome P450 3A4 [6]) | microsomal CLint [7] | microsomal CLint [8] | Structure (SMILES) | IC50 [4]
0.071 µM | 28 µM | 28 µL/min/mg | -4.2 | > 175 µM |  | 0.55 µM | 0.037 min⁻¹ | 52 µL/min/mg | 77 µL/min/mg | Cc1cc(N2CCc3c(c(C)nn3CC34CCC(NC5CCC5)(CC3)CC4)C2)c2cnn(C)c2n1 | 25 µM
0.05 µM |  | < 15 µL/min/mg | -4.8 | > 175 µM | 0.01 µM | 0.35 µM |  | 27 µL/min/mg | < 15 µL/min/mg | COCCNC12CCC(Cn3nc(C)c4c3CCN(c3cc(C)nc5c3cnn5C)C4)(CC1)CC2 | 22 µM
0.03 µM | > 50 µM | 175 µL/min/mg | -4.1 | > 175 µM |  | 2.1 µM | 0.038 min⁻¹ | 130 µL/min/mg | 246 µL/min/mg | Cc1cc(N2CCc3c(c(C)nn3CC34CCC(N5CCOCC5)(CC3)CC4)C2)c2cnn(C)c2n1 | > 30 µM
0.025 µM | > 50 µM | 33 µL/min/mg | -4.3 |  | 0.006 µM | 0.73 µM | 0.006 min⁻¹ | 147 µL/min/mg | 104 µL/min/mg | Cc1cc(N2CCc3c(c(C)nn3CC34CCC(NC(=O)CN(C)C)(CC3)CC4)C2)c2cnn(C)c2n1 | > 30 µM
